Data as given in PubChem BioAssay AID743297 (The Scripps Research Institute Molecular Screening Center, 2014).
Active and inactive are the calls of the source.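 Rule for the calls: active = IC50 against TDP2 at or below a set limit; inactive = IC50 above that limit.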

Molecular target: Tyrosyl-DNA phosphodiesterase 2 (Homo sapiens) (UniProt O95551)
Assay: human TDP2 enzyme inhibitors, dose response, biochemical, epi absorbance, IC50 (AID 743297)
Conditions: recombinant TDP2, T5PNP hydrolysis, absorbance 415 nm

Sequence of Tyrosyl-DNA phosphodiesterase 2 (Homo sapiens) (O95551 whole entry, looked up): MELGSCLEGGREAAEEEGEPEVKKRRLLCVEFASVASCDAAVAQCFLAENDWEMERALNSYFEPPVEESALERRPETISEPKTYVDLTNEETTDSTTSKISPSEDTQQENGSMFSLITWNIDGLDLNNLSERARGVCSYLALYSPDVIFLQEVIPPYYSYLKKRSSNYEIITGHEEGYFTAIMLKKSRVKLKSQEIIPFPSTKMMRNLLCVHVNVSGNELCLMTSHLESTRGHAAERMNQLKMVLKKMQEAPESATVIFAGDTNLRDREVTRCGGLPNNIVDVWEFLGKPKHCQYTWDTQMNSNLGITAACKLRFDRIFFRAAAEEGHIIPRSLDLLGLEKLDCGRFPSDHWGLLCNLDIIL

IC50: inactive
SMILES: C[c-]1[c-](C)[c-](C)[c-](C)[c-]1C.[Fe].c1cc2nccc(N3CCCC3)[c-]2c1 (stereo unspecified)
